Data as given in the NIST ThermoML archive (doi:10.1021/je301014d).
± gives the expanded uncertainty stated by the source.

Tests used:
[1] = Crystal; DTA
[2] = Molar enthalpy of transition or fusion; conditions: Crystal; DSC

| Normal melting temperature [1] | Molar enthalpy of transition or fusion [2] | Compound |
| --- | --- | --- |
| 97.23 ± 1.1 °C | 3.87 ± 0.0956 kcal/mol | C[C@H]1OC(=O)[C@@H](C)OC1=O [(3R,6R)-3,6-dimethyl-1,4-dioxane-2,5-dione] |
| 97.82 ± 1.1 °C | 3.87 ± 0.0956 kcal/mol | C[C@@H]1OC(=O)[C@H](C)OC1=O [(3S,6S)-3,6-dimethyl-1,4-dioxane-2,5-dione] |
